Laboratory results from patent US6852673B2, “Herbicidal pyridine compounds” (BASF Aktiengesellschaft, priority 1998, dated 2005).

How the values were obtained:
Format in all cases: in vivo
Galium aparine (GALAP) [1] = assay: Pre-emergence herbicidal evaluation, cleaver
Excerpt: (§1) The pre-emergence herbicidal activity of the compounds of the present invention is exemplified by the following test in which the seeds of a variety of monocotyledonous and dicotyledonous plants are seperately mixed with potting soil and planted on top of approximately one inch of soil in separate pots. After planting, the pots are sprayed with the selected aqueous acetone solution containing test compound in sufficient quantity to provide the equivalent of about 0.0125 to 0.4 kg per hectare of test compound per pot. The treated pots are then placed on greenhouse benches, watered and cared for in accordance with conventional greenhouse procedures. From 2 to 4 weeks after treatment, the tests are terminated and each pot is examined and rated according to the rating system set forth below.

[2] = test system: Ambrosia artemiisifolia (AMBEL); assay: Post-emergence herbicidal evaluation, ragweed; conditions: rated 2 to 4 weeks after treatment
Method: (§2) [table] [table] […] These acetone solutions are diluted with water and the resulting formulations applied at dosage levels equivalent of about 0.03 to 0.4 kg per hectare of test compound per pot. After spraying the plants are placed on greenhouse benches and are cared for in the usual manner, commensurate with conventional greenhouse practices. From 2 to 4 weeks after treatment, the seedling plants are examined and rated according to the rating system provided above. A rating 0 indicates growth as untreated control, a rating 9 indicates death.

[3] = test system: Digitaria sanguinalis (DIGSA); assay: Pre-emergence herbicidal evaluation, large crabgrass
Excerpt: as §1

Galium aparine (GALAP) [4] = assay: Post-emergence herbicidal evaluation, cleaver; conditions: rated 2 to 4 weeks after treatment
Method: as §2

Lamium purpureum (LAMPU) = assay: Post-emergence herbicidal evaluation, purple deadnettle; conditions: rated 2 to 4 weeks after treatment
Method: as §2

[5] = test system: Abutilon theophrasti (ABUTH); assay: Post-emergence herbicidal evaluation, velvetleaf; conditions: rated 2 to 4 weeks after treatment
Method: as §2

[6] = test system: Abutilon theophrasti (ABUTH); assay: Pre-emergence herbicidal evaluation, velvetleaf
Excerpt: as §1

[7] = test system: Ambrosia artemiisifolia (AMBEL); assay: Pre-emergence herbicidal evaluation, ragweed
Excerpt: as §1

Setaria viridis (SETVI) = assay: Pre-emergence herbicidal evaluation, green foxtail
Excerpt: as §1

[8] = test system: Digitaria sanguinalis (DIGSA); assay: Post-emergence herbicidal evaluation, large crabgrass; conditions: rated 2 to 4 weeks after treatment
Method: as §2

[9] = test system: Alopecurus myosuroides (ALOMY); assay: Pre-emergence herbicidal evaluation, black grass
Excerpt: as §1

Zea mays (ZEAMX) = assay: Pre-emergence herbicidal evaluation, maize
Excerpt: as §1

[10] = test system: Ipomoea hederacea (IPOHE); assay: Pre-emergence herbicidal evaluation, morning glory
Excerpt: as §1

Stellaria media (STEME) = assay: Post-emergence herbicidal evaluation, chickweed; conditions: rated 2 to 4 weeks after treatment
Method: as §2

[11] = test system: Ipomoea hederacea (IPOHE); assay: Post-emergence herbicidal evaluation, morning glory; conditions: rated 2 to 4 weeks after treatment
Method: as §2

Glycine max (GLXMA) = assay: Pre-emergence herbicidal evaluation, soyabeans
Excerpt: as §1

Solanum nigrum (SOLNI) = assay: Post-emergence herbicidal evaluation, black nightshade; conditions: rated 2 to 4 weeks after treatment
Method: as §2

Cc1cc(OCC(F)(F)C(F)(F)F)nc(Oc2cc(C(F)(F)F)nn2C)c1 [Example 7]
GALAP rating (Galium aparine (GALAP) [1]; dose 0.025 kg/ha): 0 (0 - No effect) | GALAP rating (Galium aparine (GALAP) [1]; dose 0.1 kg/ha): 1 (1 - Trace effect) | GALAP rating (Galium aparine (GALAP) [1]; dose 0.4 kg/ha): 2 (2 - Slight effect) | AMBEL rating ([2]; dose 0.03 kg/ha): 1 (1 - Trace effect) | AMBEL rating ([2]; dose 0.1 kg/ha): 2 (2 - Slight effect) | AMBEL rating ([2]; dose 0.4 kg/ha): 5 (5 - Definite injury) | DIGSA rating ([3]; dose 0.013 kg/ha): 0 (0 - No effect) | DIGSA rating ([3]; dose 0.025 kg/ha): 1 (1 - Trace effect) | DIGSA rating ([3]; dose 0.1 kg/ha): 6 (6 - Herbicidal effect) | DIGSA rating ([3]; dose 0.4 kg/ha): 8 (8 - Approaching complete kill) | GALAP rating (Galium aparine (GALAP) [4]; dose 0.03 kg/ha): 3 (3 - Moderate effect) | GALAP rating (Galium aparine (GALAP) [4]; dose 0.1 kg/ha): 5 (5 - Definite injury) | GALAP rating (Galium aparine (GALAP) [4]; dose 0.4 kg/ha): 5 (5 - Definite injury) | LAMPU rating (Lamium purpureum (LAMPU); dose 0.03 kg/ha): 0 (0 - No effect) | LAMPU rating (Lamium purpureum (LAMPU); dose 0.1 kg/ha): 2 (2 - Slight effect) | LAMPU rating (Lamium purpureum (LAMPU); dose 0.4 kg/ha): 6 (6 - Herbicidal effect) | ABUTH rating ([5]; dose 0.03 kg/ha): 2 (2 - Slight effect) | ABUTH rating ([5]; dose 0.4 kg/ha): 2 (2 - Slight effect) | ABUTH rating ([6]; dose 0.025 kg/ha): 0 (0 - No effect) | ABUTH rating ([6]; dose 0.1 kg/ha): 1 (1 - Trace effect) | ABUTH rating ([6]; dose 0.4 kg/ha): 7 (7 - Good herbicidal effect) | AMBEL rating ([7]; dose 0.025 kg/ha): 1 (1 - Trace effect) | AMBEL rating ([7]; dose 0.1 kg/ha): 6 (6 - Herbicidal effect) | AMBEL rating ([7]; dose 0.4 kg/ha): 9 (9 - Complete kill) | SETVI rating (Setaria viridis (SETVI); dose 0.013 kg/ha): 2 (2 - Slight effect) | SETVI rating (Setaria viridis (SETVI); dose 0.025 kg/ha): 2 (2 - Slight effect) | SETVI rating (Setaria viridis (SETVI); dose 0.1 kg/ha): 5 (5 - Definite injury) | SETVI rating (Setaria viridis (SETVI); dose 0.4 kg/ha): 8 (8 - Approaching complete kill) | DIGSA rating ([8]; dose 0.03 kg/ha): 2 (2 - Slight effect) | DIGSA rating ([8]; dose 0.1 kg/ha): 9 (9 - Complete kill) | DIGSA rating ([8]; dose 0.4 kg/ha): 9 (9 - Complete kill) | ALOMY rating ([9]; dose 0.013 kg/ha): 0 (0 - No effect) | ALOMY rating ([9]; dose 0.025 kg/ha): 1 (1 - Trace effect) | ALOMY rating ([9]; dose 0.1 kg/ha): 4 (4 - Injury) | ALOMY rating ([9]; dose 0.4 kg/ha): 9 (9 - Complete kill) | selectivity in maize (Zea mays (ZEAMX)): good selectivity | ZEAMX rating (Zea mays (ZEAMX); dose 0.013 kg/ha): 0 (0 - No effect) | ZEAMX rating (Zea mays (ZEAMX); dose 0.025 kg/ha): 0 (0 - No effect) | ZEAMX rating (Zea mays (ZEAMX); dose 0.1 kg/ha): 0 (0 - No effect) | ZEAMX rating (Zea mays (ZEAMX); dose 0.4 kg/ha): 2 (2 - Slight effect) | IPOHE rating ([10]; dose 0.025 kg/ha): 1 (1 - Trace effect) | IPOHE rating ([10]; dose 0.1 kg/ha): 2 (2 - Slight effect) | IPOHE rating ([10]; dose 0.4 kg/ha): 5 (5 - Definite injury) | STEME rating (Stellaria media (STEME); dose 0.03 kg/ha): 2 (2 - Slight effect) | STEME rating (Stellaria media (STEME); dose 0.1 kg/ha): 5 (5 - Definite injury) | STEME rating (Stellaria media (STEME); dose 0.4 kg/ha): 5 (5 - Definite injury) | IPOHE rating ([11]; dose 0.03 kg/ha): 3 (3 - Moderate effect) | IPOHE rating ([11]; dose 0.1 kg/ha): 9 (9 - Complete kill) | IPOHE rating ([11]; dose 0.4 kg/ha): 9 (9 - Complete kill) | selectivity in soybeans (Glycine max (GLXMA)): quite selective | GLXMA rating (Glycine max (GLXMA); dose 0.013 kg/ha): 0 (0 - No effect) | GLXMA rating (Glycine max (GLXMA); dose 0.025 kg/ha): 0 (0 - No effect) | GLXMA rating (Glycine max (GLXMA); dose 0.1 kg/ha): 2 (2 - Slight effect) | GLXMA rating (Glycine max (GLXMA); dose 0.4 kg/ha): 3 (3 - Moderate effect) | SOLNI rating (Solanum nigrum (SOLNI); dose 0.03 kg/ha): 0 (0 - No effect) | SOLNI rating (Solanum nigrum (SOLNI); dose 0.1 kg/ha): 0 (0 - No effect) | SOLNI rating (Solanum nigrum (SOLNI); dose 0.4 kg/ha): 0 (0 - No effect)
